Holding throughout (type): cell-based
Test [1] has as its system HIEC-6 non-cancer human intestinal epithelial cells. The test is described as follows: Cell number after peptide treatment, HIEC-6. The following applies: 6 days, 0 μM to 50 μM; stock without BSA. The protocol:
Replicate cultures of HIEC-6 non-cancer human intestinal epithelial cells, MCF10A non-cancer human breast epithelial cells, or normal human astrocytes were exposed to CP-DN-CEBPB or CP-DN-CEBPD, for 6 days at doses of 0 μM to 50 μM. […] Stock solutions of the peptides were prepared in buffer without added bovine serum albumin (BSA).

A further test relates to HCT116 cells. The test is described as follows: Apoptotic nuclei, propidium iodide flow cytometry, HCT116. The settings on record: 20 μM, 3 days, vs untreated cells. The protocol: (§1) MDA-MB-231, MCF7, HCT116 and T98G cancer cell lines were treated for 3 days with 20 μM CP-dn-CEBPB and CP-dn-CEBPD peptides from stock solutions prepared without additives. Cultures were stained with propidium iodide and assessed for proportion of cells with apoptotic nuclei by flow cytometry.
In general terms: In flow cytometry, cells or beads pass a laser one at a time.

Another test has as its system MCF7 cells. In words: Apoptotic nuclei, propidium iodide flow cytometry, MCF7. The settings on record: 20 μM, 3 days, vs untreated cells. The protocol:
as §1

In test [2] the test system is paclitaxel-resistant T98G cells. In words: Cell number, paclitaxel-resistant T98G cells. The settings on record: 6 days; 0 μM to 50 μM peptide or 0 nM to 50 nM paclitaxel. The protocol: Replicate cultures of T98G wild type cells and paclitaxel-resistant T98G cells were treated with 0 nM to 50 nM paclitaxel or 0 μM to 50 μM CP-dn-CEBPB or CP-dn-CEBPD peptides, maintained for 6 days, and then assessed for cell number. Paclitaxel resistant T98G cells were inhibited by both CP-dn-CEBPB (FIG. 28A) and CP-dn-CEBPD (FIG. 28B), but, as expected were not inhibited by paclitaxel (FIG. 28C). This establishes that CP-dn-CEBPB and CP-dn-CEBPD may be effective against chemotherapy-resistant cells.

Test [3] deals with T98G cells. In words: Scratch migration assay, T98G. The following applies: 20 hours, 20 μM or 40 μM. The protocol:
Monolayers of MDA-MB 231 or T98G cells were subjected to formation of a scratch at 0 time and cultured for 20 hours in 20 μM or 40 μM CP-DN-CEBPB and CP-DN-CEBPD. Multiple images taken at 0 time and after 20 hours were analyzed for gap width of the scratches into which cells migrated or not. Example images for T98G are found in FIG. 22A, with compiled data for the T98G samples in FIG. 22B. Example images for MDA-MB 231 are found in FIG. 22C, with compiled data for the MDA-MB 231 samples in FIG. 22D.

The test system of the next test is IL6. In words: qPCR for IL6 mRNA. The settings on record: 20 μM, 3 days; T98G, MDA-MB-231, MCF7, A375 and HCT116 cells. The protocol: T98G, MDA-MB-231, MCF7, A375, and HCT116 cells were treated with or without 20 μM CP-dn-CEBPB or CP-dn-CEBPD for 3 days and then assessed by qPCR for relative levels of IL6 (FIG. 32A, T98G; FIG. 32B, MDA-MB-231; FIG. 32C, MCF7; FIG. 32D, A375; FIG. 32E, HCT116) and IL8 mRNA (FIG. 32F, T98G; FIG. 32G, MDA-MB-231; FIG. 32H, MCF7; FIG. 32I, A375; FIG. 32J, HCT116).
(In qPCR the cycle at which signal appears reflects the starting amount.)

Test [4] deals with MDA-MB 231 cells. In words: Colony forming activity on culture plates, MDA-MB 231. The settings on record: 6 days; doses 0.05, 0.5 and 5 μM. The protocol: T98G (FIG. 21A), MDA-MB 231 (FIG. 21B), and HCT116 (FIG. 21C) cells were exposed to CP-DN-CEBPB and CP-DN-CEBPD for 6 days at doses of 0.05 μM 0.5 μM, and 5 μM while growing in soft agar. Growth was inhibited by does as low as 0.5 μM. T98G (FIG. 21D), MDA-MB 231 (FIG. 21E), and HCT116 (FIG. 21F) cells were exposed to CP-DN-CEBPB and CP-DN-CEBPD for 6 days at doses of 0.05 μM 0.5 μM, and 5 μM while growing on culture plates. Growth was inhibited by does as low as 0.5 μM.

Test [5] relates to ASNS (Asparagine synthetase). In words: qPCR for ASNS. The settings on record: 20 μM, 3 days; T98G, MDA-MB-231, MCF7, A375 and HCT116 cells. The protocol:
T98G, MDA-MB-231, MCF7, A375, and HCT116 cells were treated with or without 20 μM CP-dn-CEBPB or CP-dn-CEBPD for 3 days and then assessed by qPCR for relative levels of ASNS (Asparagine synthetase) (FIG. 33A, T98G; FIG. 33B, MDA-MB-231; FIG. 33C, MCF7; FIG. 33D, A375; FIG. 33E, HCT116).

Test [6] relates to T98G cells. The test is described as follows: Combination with chloroquine, cell number, T98G. The following applies: 5 μM or 10 μM chloroquine and 3 μM or 10 μM peptide, 6 days. The protocol:
(§2) Replicate cultures of T98G, MDA-MB 231, and HCT116 cells were treated with 5 μM or 10 μM chloroquine and 3 μM or 10 μM CP-dn-CEBPB and CP-dn-CEBPD peptides, maintained for 6 days, and then assessed for cell number. The bar graphs of FIGS. 29A (T98G, CP-dn-CEBPB), 29C (T98G, CP-dn-CEBPBD, 29E (MDA-MB-231, CP-dn-CEBPBD), 29G (MDA-MB-231, CP-dn-CEBPD), 29I (HCT116, CP-dn-CEBPBB), and 26K (HCT116, CP-dn-CEBPBD) show relative cell numbers for each condition as compared to untreated controls. The line graphs of FIGS. 26B (T98G, CP-dn-CEBPB), 26D (T98G, CP-dn-CEBPBD), 26F (MDA-MB-231, CP-dn-CEBPB), 26H (MDA-MB-231, CP-dn-CEBPD), 26J (HCT116, CP-dn-CEBPB), and 26L (HCT116 CP-dn-CEBPBD) show the response as normalized in each case so that 100 represents the relative number of surviving cells that received the indicated level of chloroquine, but no peptide treatment. The results ranged from near-additive (HCT116 cells, CI=0.92±0.08 for CP-dn-CEBPB and 0.87±0.07 for CP-dn-CEBPD) to apparent synergy (T98G, CI=0.56±0.06 for CP-dn-CEBPB and 0.75±0.03 for CP-dn-CEBPD; MDA-MB-261, CI=0.59±0.11 for CP-dn-CEBPB and 0.47±0.05 for CP-dn-CEBPD).

For test [7], the system named is B16 murine melanoma cells. In words: Cell number after peptide treatment, B16. The following applies: 6 days, 0 μM to 50 μM; stock without BSA. The protocol:
Replicate cultures were exposed to the peptides the for 6 days at the indicated concentrations. Stock solutions of the peptides were prepared in buffer without added bovine serum albumin (BSA).

Test [8] concerns MDA-MB 231 cells. In words: Combination with chloroquine, cell number, MDA-MB 231. The following applies: 5 μM or 10 μM chloroquine and 3 μM or 10 μM peptide, 6 days. The protocol:
as §2

No end group written: not given here.

Consider “RQIKIWFQNRRMKWKKLETQHKVLELTAENERLQKKVEQLSRELSTLRNLFKQL [CP-DN-CEBPB]”, for which the “number of HIEC-6 cells” value in [1] was “did not cause a dose-dependent decrease”. The “proportion of cells with apoptotic nuclei” value in the test with HCT116 cells and in the test on MCF7 cells was “increased apoptotic cell death” each time. For the same sequence, the “inhibition of paclitaxel-resistant T98G cells (cell number)” value in [2] is reported as “inhibited”. The “cell migration into scratch (gap width)” value with T98G cells [3] is “able to inhibit migration”. The “relative levels of IL6 mRNA” value in the test with IL6 is given as “suppress expression”. Besides, the “lowest dose at which growth was inhibited, culture plates” value with MDA-MB 231 cells [4] came to 0.5 µM. Further, in test [5], the “relative levels of ASNS” value is “suppress expression of ASNS”. Besides, the CI with chloroquine in the test with T98G cells [6] turned out to be 0.56±0.06; in the test with MDA-MB 231 cells [8] it was 0.59±0.11. The “growth and survival of B16 cells” value in [7] was “decrease in growth and survival”.

Turning to “RQIKIWFQNRRMKWKKLVELSAENEKLHQRVEQLTRDLAGLRQFFK [CP-DN-CEBPD]”, in test [1], the “number of HIEC-6 cells” value is “did not cause a dose-dependent decrease”. Besides, the “proportion of cells with apoptotic nuclei” value with HCT116 cells and with MCF7 cells was “increased apoptotic cell death” each time. In addition, the “inhibition of paclitaxel-resistant T98G cells (cell number)” value in test [2] is listed as “inhibited”. Moreover, the “cell migration into scratch (gap width)” value in the test on T98G cells [3] is “able to inhibit migration”. Also, in the test on IL6, the “relative levels of IL6 mRNA” value is “suppress expression”. In addition, the “lowest dose at which growth was inhibited, culture plates” value in the test with MDA-MB 231 cells [4] came to 0.5 µM. Moreover, the “relative levels of ASNS” value in [5] was “suppress expression of ASNS”. Moreover, the CI with chloroquine in the test with T98G cells [6] turned out to be 0.75±0.03; with MDA-MB 231 cells [8], 0.47±0.05. The “growth and survival of B16 cells” value in [7] is “decrease in growth and survival”.

The record behind these values is US12428455B2, “Dominant negative CEBPB and CEBPD proteins and methods of use for decreasing viability of neoplastic cells” (The Trustees of Columbia University in the City of New York, priority 2018, dated 2025).
